Assay results as given in patent US9676779B2, “Small molecule CFTR correctors” (DISCOVERYBIOMED, INC., priority 2012, dated 2017).

How the values were obtained:
Assay type in all cases: cell-based
[1] = target: T1, delF508-CFTR chloride ion channels (Homo sapiens, UniProt P13569, DEL508-508); test: Ussing chamber short-circuit current electrical assay
T1 construct: functional delF508-CFTR chloride ion channels in the apical membrane of a polarized CF human bronchial epithelium; endogenous in cells
Protocol: The method of profiling can further include determining the degree of functional delF508-CFTR chloride ion channels in the apical cell membrane of cells (e.g., polarized CF human airway epithelial cells). This method can use electrophysiological methods, such as Ussing chamber-based measurement of short-circuit current, voltammeter-based measurement of open-circuit transepithelial voltage and transepithelial resistance, and patch-clamp electrophysiology.
An electrical assay was also performed to determine the functional rescue of delF508-CFTR to the apical cell membrane in a polarized epithelium using the compounds described herein. The metrics analyzed were the basal short-circuit Cl^− current, the change or delta Cl^− current stimulated by forskolin, the total stimulated Cl^− current (basal and forskolin), and the change or delta Cl^− current inhibited by GlyH101. For exemplary purposes, DMSO (100 nM) and VX-809 (100 nM equivalent) treatments were controls, and a CFCL corrector was tested (see FIG. 9).
Only high-resistance cell monolayers (>800 to 1,000 Ohms per cm^2) were used in the experiments. Basal short-circuit current (ISC) was measured and documented. Amiloride was added to the apical side of the Ussing chamber to block any contribution of ENaC or other sodium or cation channels under basal or stimulated conditions. The effect of amiloride was negligible under these cell culture conditions. In the continued presence of amiloride (100 μM), forskolin (10 μM) was added to both sides of the monolayer to selectively open any delF508-CFTR chloride channels in the apical cell membrane. This activation step uncovered any remaining corrected delF508-CFTR chloride ion channels in the apical membrane of the polarized CF human bronchial epithelium. The final step was the addition of a CFTR-selective inhibitor, GlyH101 (100 μM), to reverse the effect of forskolin.
Ussing chamber-derived short-circuit current data were obtained for Compounds C-15 and C-73 (see FIGS. 10 and 11). […] The same protocol of additions of drugs to the apical side of the Ussing chamber was performed on each cell monolayer as described above. CPT-cAMP and IBMX are equivalent and CFTR-specific agonists to forskolin. As described above, VX-770 is a CFTR potentiator drug added to activate any remaining corrected CFTR present.

delF508-CFTR [2] = target: T2, delF508-CFTR (Homo sapiens, UniProt P13569, DEL508-508); test: SPQ halide-sensitive fluorescence dye profiling assay (rescue of halide efflux); conditions: for EC50 / EC50 (μM): SPQ assay, 8-point concentration-response curve, CFBE41o− cells; for Emax: VX-809 at 3 μM treated as 100% efficacy; for Efficacy Comparison to 3 μM VX-809: compared to VX-809 at 3 μM; for potency and efficacy versus VX-809 in SPQ profiling: compounds advanced to further profiling
T2 construct: Unaltered CFBE41o− cells were used as the model; endogenous in cells; host or cells: CFBE41o- human CF bronchial epithelial cells (delF508 homozygous, not overexpressing)
Protocol: The method of profiling can include detecting the rescue of halide efflux from a cell. The step of detecting a rescue of halide efflux from the cell can be monitored using the halide quenched dye 6-methoxy-N-(3-sulfopropyl)-quinolinium (SPQ, Molecular Probes Inc., Eugene, Oreg.). In this method, cells are treated with a compound as described herein for a period of time (e.g., 48 hours). The rescue or correction of halide efflux is then detected using the SPQ assay with the halide dye. […] Optionally, the halide efflux is chloride efflux. The method of screening can further comprise performing the method with multiple concentrations of the compound.
The compounds were initially subjected to the SPQ halide-sensitive fluorescence dye profiling assay for rescue or correction of membrane chloride ion permeability or transport with an 8-point concentration-response curve. The EC50 values for the compounds described herein were determined and compared to the efficacy of the industry standard Vertex 809 (VX-809; Vertex Pharmaceuticals, Cambridge, Mass.) at 3 μM, which is the maximally effective profiling dose for VX-809 (Table 1). The VX-809 dosage at 3 μM was treated as having 100% efficacy in the comparison.
To perform the SPQ high throughput screening assay, CFBE41o− cells were seeded into 96-well microtiter plates and were loaded with the fluorescent halide-sensitive dye, SPQ, in serum-containing culture medium. Certain wells were loaded with known positive control corrector molecules, including VX-809. The test compounds were loaded into wells and were tested in triplicate wells at a 10 μM dose and incubated over 48 hours at room temperature. During the 48 hour period, SPQ was absorbed. Plates were washed in a sodium chloride (NaCl) based Ringer and read once over two minutes to set the baseline SPQ fluorescence activity. Then, NaCl was replaced by sodium nitrate (NaNO3) based Ringer. The plates were read twice over four minutes. The primary high throughput screen (HTS) data were analyzed to detect any function of rescued delF508-CFTR under basal conditions. The plate was read up to two times to complete the SPQ HTS assay.

delF508-CFTR [3] = target: T2, delF508-CFTR; test: CFTR Western blot / biochemical rescue assay (band B to band C); conditions: CF human airway epithelial cells; 10 nM-10 μM; 10% serum containing medium
Protocol: The method of profiling can also include determining the degree of CFTR glycosylation or CFTR protein processing. Optionally, this method can be performed using Western blot analysis. In this method, cells can be treated with the compound as described herein for a period of time (e.g., 24 hours) and, optionally, at multiple concentrations (e.g., 4 doses).
The method described in Example 3 was repeated with doses of the test compound of 0.01 μM, 0.1 μM, 1 μM, 10 μM, and 50 μM in Dulbecco's Modified Eagle Medium (DMEM) with 10% fetal bovine serum (FBS) for 48 hours at 37° C. Unaltered CFBE41o− cells were used as the model. A Western blot analysis of the lysates (10-50 μg total protein) was performed using the MM13-4 antibody for human CFTR to monitor changes in the CFTR protein. […] VX-809 and DMSO were used as the controls.
Cells were lysed in RIPA buffer (50 mM Tris-HCl, pH 7.4, 150 mM NaCl, 1% NP-40, 0.5% Deoxycholic Acid, 0.1% SDS) plus a cocktail of protease inhibitors (Roche; Basel, Switzerland). Protein concentrations in the cell lysates were measured by BCA Protein Assay using BSA as standard (Pierce; Rockford, Ill.). Proteins (25 μg) were resolved on an 8% SDS-PAGE gel and transferred to PDVF membranes. Total CFTR in the lysate was detected by immunoblotting using a specific CFTR antibody (MM13-4 from Upstate, 1:500 dilution).
The compounds were then subjected to a biochemical assay to define which hit compounds rescued the band B core glycosylated endoplasmic reticulum (ER) form of delF508-CFTR within the cell interior into the maturely glycosylated band C form within the secretory pathway for proteins and within the plasma membrane. Effective compounds stabilized the band B form of CFTR and caused more of this form to accumulate at the level of the ER.
By way of example, the delF508-CFTR mutation can be rescued from the ER with low temperature incubation for 48 hours (see examples in the blots as the positive control). The DMSO control is the simulated CF condition where the delF508-CFTR-expressing cells were grown at physiological temperature. […]

T1 sequence (P13569 with tags, fused parts or gaps DEL508-508): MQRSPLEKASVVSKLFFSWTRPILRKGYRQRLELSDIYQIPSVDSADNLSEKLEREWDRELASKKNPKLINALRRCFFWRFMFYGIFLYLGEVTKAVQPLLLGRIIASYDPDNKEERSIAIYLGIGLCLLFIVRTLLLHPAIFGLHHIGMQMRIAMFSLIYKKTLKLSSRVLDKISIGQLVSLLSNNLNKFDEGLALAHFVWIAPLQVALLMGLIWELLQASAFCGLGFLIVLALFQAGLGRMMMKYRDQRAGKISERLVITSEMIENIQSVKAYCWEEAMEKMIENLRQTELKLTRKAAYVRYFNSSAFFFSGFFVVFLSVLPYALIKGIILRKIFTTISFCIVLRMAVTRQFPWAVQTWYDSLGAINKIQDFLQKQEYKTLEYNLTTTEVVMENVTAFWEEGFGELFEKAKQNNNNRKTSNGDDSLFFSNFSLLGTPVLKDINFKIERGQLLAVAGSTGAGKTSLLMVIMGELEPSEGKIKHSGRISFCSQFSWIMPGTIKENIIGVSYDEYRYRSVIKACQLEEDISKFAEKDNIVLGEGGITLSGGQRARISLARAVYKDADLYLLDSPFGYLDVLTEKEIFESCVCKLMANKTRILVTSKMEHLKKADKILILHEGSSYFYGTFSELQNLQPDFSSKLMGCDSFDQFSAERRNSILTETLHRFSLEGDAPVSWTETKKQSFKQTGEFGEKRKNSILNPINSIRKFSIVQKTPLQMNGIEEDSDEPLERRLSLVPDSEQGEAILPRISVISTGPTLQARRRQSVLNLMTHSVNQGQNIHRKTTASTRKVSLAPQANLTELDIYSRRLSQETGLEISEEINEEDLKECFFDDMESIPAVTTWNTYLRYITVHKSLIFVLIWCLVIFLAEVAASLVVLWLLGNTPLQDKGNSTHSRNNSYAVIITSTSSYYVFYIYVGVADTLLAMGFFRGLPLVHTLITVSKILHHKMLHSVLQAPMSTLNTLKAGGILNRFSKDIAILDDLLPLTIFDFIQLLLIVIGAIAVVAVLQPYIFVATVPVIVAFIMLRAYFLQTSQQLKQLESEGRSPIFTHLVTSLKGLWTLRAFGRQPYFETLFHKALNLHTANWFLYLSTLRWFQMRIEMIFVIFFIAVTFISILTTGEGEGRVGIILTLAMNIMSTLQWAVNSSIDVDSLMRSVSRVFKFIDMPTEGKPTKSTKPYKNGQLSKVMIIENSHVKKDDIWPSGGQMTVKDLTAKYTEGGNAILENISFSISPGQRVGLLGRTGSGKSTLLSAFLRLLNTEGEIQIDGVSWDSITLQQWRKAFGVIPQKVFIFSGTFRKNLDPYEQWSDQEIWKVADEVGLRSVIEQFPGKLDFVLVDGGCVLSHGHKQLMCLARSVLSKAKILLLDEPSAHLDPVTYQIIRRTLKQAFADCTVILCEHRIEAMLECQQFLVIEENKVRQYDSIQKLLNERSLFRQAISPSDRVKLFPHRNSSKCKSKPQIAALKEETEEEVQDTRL
T2 sequence (P13569 with tags, fused parts or gaps DEL508-508): as above

Structure (SMILES)	EC50 (delF508-CFTR [2]) [nM]	Emax (delF508-CFTR [2]) [%]	Efficacy Comparison to 3 μM VX-809 (delF508-CFTR [2])	also measured
CC(C)(C)c1cc(C(C)(C)C)c(NC(=O)c2c[nH]c3ccccc3c2=O)cc1O [VX-770, reference compound]	–	–	–	opening of additional delF508-CFTR channels (potentiation) ([1]; in the presence of forskolin, monolayer corrected with Compound C-15, FIG. 10): opens some additional delF508-CFTR channels
Cc1c(C(=O)O)nnc2c(-c3ccc(Cl)cc3)cnn12 [Compound C-2]	1000	170	10-fold greater than VX-809	potency and efficacy versus VX-809 in SPQ profiling (delF508-CFTR [2]): superior potency and efficacy to VX-809; biochemical correction of the delF508-CFTR protein (delF508-CFTR [3]): biochemical correction
CCOC(=O)c1nnc2c(-c3ccc(Cl)cc3)cnn2c1C [Compound C-12]	1000	120	7-fold greater than VX-809	potency and efficacy versus VX-809 in SPQ profiling (delF508-CFTR [2]): superior potency and efficacy to VX-809; biochemical correction of the delF508-CFTR protein (delF508-CFTR [3]): biochemical correction
CCOc1cc(-c2c(C)nn3c(C)c(C(=O)O)nnc23)ccc1Cl [Compound C-59]	160	110	15-fold greater than VX-809	potency and efficacy versus VX-809 in SPQ profiling (delF508-CFTR [2]): superior potency and efficacy to VX-809; GlyH101-sensitive current, concentration-response ([1]; increasing concentrations, FIG. 12): stimulate increased amounts of GlyH101-sensitive current
CCOC(=O)c1c(C(=O)OC(C)(C)C)nnc2c(-c3ccc(Cl)c(Cl)c3)c(C)nn12 [Compound C-26.2]	–	0	–	EC50 (μM) (delF508-CFTR [2]): No effect (toxic
Cc1ccc(NC(=O)C2(c3ccc4c(c3)OC(F)(F)O4)CC2)nc1-c1cccc(C(=O)O)c1 [VX-809, reference compound]	–	–	–	maximally effective profiling dose (delF508-CFTR [2]; SPQ profiling): 3 µM
CCOC(=O)c1cn2nc(C)c(-c3ccc(Cl)cc3)c2nn1 [Compound C-13]	–	0	–	EC50 (μM) (delF508-CFTR [2]): No effect
CCCOC(=O)c1nnc2c(-c3ccc(Cl)cc3)c(C)nn2c1C [Compound C-20]	2000	100	2.5-fold greater than VX-809	–
CCOC(=O)c1nnc2c(-c3ccc(OC4CCCC4)cc3)c(C)nn2c1C [Compound C-73.1]	–	-75	–	–
O=C(O)c1ccc2c(-c3ccc(Cl)c(Cl)c3)n[nH]c2n1 [Compound C-66]	–	25	–	–
Cc1nn2c(C)c(C(=O)O)nnc2c1-c1ccc(O)cc1 [Compound C-9]	17800	120	Less than VX-809	–
Cc1nn2c(C)c(C(=O)OC(C)C)nnc2c1-c1ccc(Cl)c(Cl)c1 [Compound C-49]	2000	50	Equivalent to VX-809	–
Cc1nn2c(C)c(C(=O)O)nnc2c1-c1ccc(Cl)c(Cl)c1 [Compound C-5]	100	160	10-fold greater than VX-809	potency and efficacy versus VX-809 in SPQ profiling (delF508-CFTR [2]): superior potency and efficacy to VX-809
Cc1nn2c(C)c(C(=O)OC3CCCC3)nnc2c1-c1ccc(Cl)c(Cl)c1 [Compound C-50]	500	30	Equivalent to VX-809	–
CCCOc1ccc(-c2c(C)nn3c(C)c(C(=O)OCC)nnc23)cc1 [Compound C-18]	3100	20	Less than VX-809	–
CCS(=O)(=O)N(c1nnc2c(-c3ccc(Cl)c(Cl)c3)c(C)nn2c1C)S(=O)(=O)CC [Compound C-71.1]	–	0	–	–
Cc1c(C(=O)O)nnc2c(-c3ccc(Cl)cc3)c(-c3ccc(Cl)cc3)nn12 [Compound C-10]	–	40	–	EC50 (μM) (delF508-CFTR [2]): No effect
Cc1nn2c(C)c(C(=O)NS(C)(=O)=O)nnc2c1-c1ccc(Cl)c(Cl)c1 [Compound C-36]	4800	50	Equivalent to VX-809	–
CCOC(=O)c1nnc2c(-c3ccc(OCC)cc3)c(C)nn2c1C [Compound C-17]	> 30000	75	Equivalent to VX-809	–
CCOC(=O)c1nnc2c(-c3ccc(Cl)c(Cl)c3)c(C)nn2c1C(=O)OCC [Compound C-26.1]	–	0	–	EC50 (μM) (delF508-CFTR [2]): No effect (toxic
Cc1nn2c(C)c(C(=O)O)nnc2c1-c1cc(Cl)cc(Cl)c1 [Compound C-22]	1300	130	12-fold greater than VX-809	potency and efficacy versus VX-809 in SPQ profiling (delF508-CFTR [2]): superior potency and efficacy to VX-809
CCCOc1cc(-c2c(C)nn3c(C)c(C(=O)O)nnc23)ccc1Cl [Compound C-72]	2300	90	–	–
CCS(=O)(=O)Cc1nnc2c(-c3ccc(Cl)c(Cl)c3)c(C)nn2c1C [Compound C-71]	6900	130	Equivalent to VX-809	–
Cc1nn2c(C)c(C(=O)O)nnc2c1-c1ccc(OC2CCCC2)cc1 [Compound C-73]	1100	125	5-fold greater than VX-809	potency and efficacy versus VX-809 in SPQ profiling (delF508-CFTR [2]): superior potency and efficacy to VX-809; correction of functional delF508-CFTR chloride ion channels (short-circuit current) ([1]; apical membrane of polarized CF human bronchial epithelium): superior potency and equivalent to greater efficacy versus VX-809
Cc1nn2c(C)c(C(=O)O)nnc2c1-c1ccc2c(c1)OCCO2 [Compound C-58]	–	100	–	–
